In US6734206B1, “3-oxa-8-azaprostaglandin analogs as agents for lowering intraocular pressure” (Allergan, Inc., priority 2003, dated 2004):
One block for each molecule: values may come before it.

Tests used:
hEP1 = target: T1, hEP1 (Homo sapiens, UniProt P34995); experiment: Functional data, human EP1 receptor; format: cell-based; settings: NA = not active
T1 construct: expressed in transfected cells
T1 sequence (P34995 1-402): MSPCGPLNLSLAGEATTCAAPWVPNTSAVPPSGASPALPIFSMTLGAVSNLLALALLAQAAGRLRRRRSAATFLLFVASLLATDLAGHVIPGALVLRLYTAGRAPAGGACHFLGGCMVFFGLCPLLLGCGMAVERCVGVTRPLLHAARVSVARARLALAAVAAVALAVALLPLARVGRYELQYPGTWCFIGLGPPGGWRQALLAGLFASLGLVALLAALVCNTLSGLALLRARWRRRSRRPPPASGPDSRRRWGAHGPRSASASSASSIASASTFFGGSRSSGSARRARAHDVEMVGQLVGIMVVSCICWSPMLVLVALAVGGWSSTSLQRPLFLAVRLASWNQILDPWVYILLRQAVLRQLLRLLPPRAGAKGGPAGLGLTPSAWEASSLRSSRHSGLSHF
Protocol: (§1) Plasmids encoding the human EP1, EP2, EP3, EP4, FP, TP, IP and DP receptors were prepared by cloning the respective coding sequences into the eukaryotic expression vector pCEP4 (Invitrogen). The pCEP4 vector contains an Epstein Barr virus (EBV) origin of replication, which permits episomal replication in primate cell lines expressing EBV nuclear antigen (EBNA-1). It also contains a hygromycin resistance gene that is used for eukaryotic selection. The cells employed for stable transfection were human embryonic kidney cells (HEK-293) that were transfected with and express the EBNA-1 protein. These HEK-293-EBNA cells (Invitrogen) were grown in medium containing Geneticin (G418) to maintain expression of the EBNA-1 protein. HEK-293 cells were grown in DMEM with 10% fetal bovine serum (FBS), 250 μg ml^−1 G418 (Life Technologies) and 200 μg ml^−1 gentamicin or penicillin/streptomycin.
(§2) For transfection, the cells were grown to 50-60% confluency on 10 cm plates. The plasmid pCEP4 incorporating cDNA inserts for the respective human prostanoid receptor (20 μg) was added to 500 μl of 250 mM CaCl2. HEPES buffered saline×2 (2×HBS, 280 mM NaCl, 20 mM HEPES acid, 1.5 mM Na2HPO4, pH 7.05-7.12) was then added dropwise to a total of 500 μl, with continuous vortexing at room temperature. After 30 min, 9 ml DMEM were added to the mixture. The DNA/DMEM/calcium phosphate mixture was then added to the cells, which had been previously rinsed with 10 ml PBS. The cells were then incubated for 5 hr at 37° C. in humidified 95% air/5% CO2. The calcium phosphate solution was then removed and the cells were treated with 10% glycerol in DMEM for 2 min. The glycerol solution was then replaced by DMEM with 10% FBS. The cells were incubated overnight and the medium was replaced by DMEM/10% FBS containing 250 μg ml^−1 G418 and penicillin/streptomycin. The following day hygromycin B was added to a final concentration of 200 μg ml^−1.
Ten days after transfection, hygromycin B resistant clones were individually selected and transferred to a separate well on a 24 well plate. […]

hEP4 [1] = target: T2, hEP4 (Homo sapiens, UniProt P35408); experiment: Functional data, human EP4 receptor; format: cell-based; settings: NA = not active
T2 construct: expressed in transfected cells
Protocol: as §1, §2
(§3) Ten days after transfection, hygromycin B resistant clones were individually selected and transferred to a separate well on a 24 well plate. At confluence each clone was transferred to one well of a 6 well plate, and then expanded in a 10 cm dish. Cells were maintained under continuous hygromycin selection until use.

hTP = target: T3, hTP (Homo sapiens, UniProt P21731); experiment: Functional data, human TP receptor; format: cell-based; settings: NA = not active
T3 construct: expressed in transfected cells
T3 sequence (P21731 1-343): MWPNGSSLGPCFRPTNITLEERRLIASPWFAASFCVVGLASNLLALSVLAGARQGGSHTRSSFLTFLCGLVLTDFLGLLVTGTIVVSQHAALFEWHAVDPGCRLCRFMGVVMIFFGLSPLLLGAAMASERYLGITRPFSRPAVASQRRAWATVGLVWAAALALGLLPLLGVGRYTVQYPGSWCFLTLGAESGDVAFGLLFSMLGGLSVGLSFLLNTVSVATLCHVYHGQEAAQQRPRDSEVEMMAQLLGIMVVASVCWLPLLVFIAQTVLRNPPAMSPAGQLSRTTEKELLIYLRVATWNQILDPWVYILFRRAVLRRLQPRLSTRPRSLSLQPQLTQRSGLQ
Protocol: as §1, §2, §3

hEP4 [2] = target: T2, hEP4; experiment: Radioligand binding, human EP4 receptor; settings: NA = not active
Protocol: as §1
(§4) For transfection, the cells were grown to 50-60% confluency on 10 cm plates. The plasmid pCEP4 incorporating cDNA inserts for the respective human prostanoid receptor (20 μg) was added to 500 μl of 250 mM CaCl2. HEPES buffered saline×2 (2×HBS, 280 mM NaCl, 20 mM HEPES acid, 1.5 mM Na2HPO4, pH 7.05-7.12) was then added dropwise to a total of 500 μl, with continuous vortexing at room temperature. After 30 min, 9 ml DMEM were added to the mixture. The DNA/DMEM/calcium phosphate mixture was then added to the cells, which had been previously rinsed with 10 ml PBS. The cells were then incubated for 5 hr at 37° C. in humidified 95% air/5% CO2. […]
Radioligand binding studies on plasma membrane fractions prepared for cells stably transfected with the cat or human receptor were performed as follows. […] The pellet was then resuspended in TME buffer to provide a final protein concentration of 1 mg/ml, as determined by Bio-Rad assay. […]
The binding of [^3H](N) PGE2 (specific activity 165 Ci/mmol) was determined in duplicate and in at least 3 separate experiments. […] Competition studies were performed using a final concentration of 2.5 or 5 nM [^3H](N) PGE2 and non-specific binding was determined with 10^−5 M unlabelled PGE2.

hEP3A = target: T4, hEP3A (Homo sapiens, UniProt P43115); experiment: Functional data, human EP3A receptor; format: cell-based; settings: NA = not active
T4 construct: expressed in transfected cells
T4 sequence (P43115 1-390): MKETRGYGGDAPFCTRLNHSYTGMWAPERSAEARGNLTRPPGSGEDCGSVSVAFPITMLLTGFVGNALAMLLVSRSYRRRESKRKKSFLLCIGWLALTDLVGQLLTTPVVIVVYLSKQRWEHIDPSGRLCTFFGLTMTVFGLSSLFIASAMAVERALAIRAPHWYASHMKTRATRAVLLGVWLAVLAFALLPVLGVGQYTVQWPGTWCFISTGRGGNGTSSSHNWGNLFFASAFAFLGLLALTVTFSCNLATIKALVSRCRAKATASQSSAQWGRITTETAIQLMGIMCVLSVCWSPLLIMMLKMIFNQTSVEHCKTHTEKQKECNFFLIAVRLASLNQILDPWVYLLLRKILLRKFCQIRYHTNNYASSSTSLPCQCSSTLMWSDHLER
Protocol: as §1
as §4, with “mixture.” for “mixture. The DNA/DMEM/calcium phosphate mixture was then added to the cells, which had been previously rinsed with 10 ml PBS. The cells were then incubated for 5 hr at 37° C. in humidified 95% air/5% CO2.”

normotensive dogs [3] = experiment: Intraocular pressure in dogs, applanation pneumatonometry; format: in vivo, dog; settings: topical once daily dosing, 0.1%, at 52 h, normotensive dogs (n=8)
Protocol: (§5) The effects of the compounds of this invention on intraocular pressure may be measured as follows. The compounds are prepared at the desired concentrations in a vehicle comprising 0.1% polysorbate 80 and 10 mM TRIS base. Dogs are treated by administering 25 μl to the ocular surface, the contralateral eye receives vehicle as a control. Intraocular pressure is measured by applanation pneumatonometry. A topical once daily dosing of (4-{(R)-2-[(E)-4-(3-chlorophenyl)-3-hydroxy-but-1-enyl]-5-oxo-pyrrolidin-1-yl}-butoxy)-acetic acid [example 8] […] The maximum ocular surface hyperemia score was 1.5 (1.5 at 26, 50 and 52 h).

normotensive dogs [4] = experiment: Ocular surface hyperemia in dogs; format: in vivo, dog; settings: topical once daily dosing, 0.1%, 1.5 at 26, 50 and 52 h
Protocol: as §5

T2 sequence (P35408 whole entry): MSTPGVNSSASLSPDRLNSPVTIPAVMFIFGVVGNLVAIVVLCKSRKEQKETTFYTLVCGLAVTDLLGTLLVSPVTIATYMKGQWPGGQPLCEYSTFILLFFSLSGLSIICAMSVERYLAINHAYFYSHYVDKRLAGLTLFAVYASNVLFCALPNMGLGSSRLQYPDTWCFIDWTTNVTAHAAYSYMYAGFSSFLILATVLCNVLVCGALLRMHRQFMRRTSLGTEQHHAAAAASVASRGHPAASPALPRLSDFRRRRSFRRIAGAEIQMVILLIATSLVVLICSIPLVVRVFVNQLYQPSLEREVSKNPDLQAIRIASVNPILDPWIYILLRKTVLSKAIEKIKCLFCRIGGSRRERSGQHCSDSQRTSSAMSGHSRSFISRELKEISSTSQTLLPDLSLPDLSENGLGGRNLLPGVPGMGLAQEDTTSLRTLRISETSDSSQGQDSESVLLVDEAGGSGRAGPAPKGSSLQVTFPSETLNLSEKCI

Structure (SMILES): COC(=O)COCCCCN1C(=O)CC[C@@H]1/C=C/C(=O)Cc1cccc(Cl)c1 [Example 1, (4-{(R)-2-[(E)-4-(3-chlorolphenyl)-3-oxo-but-1-enyl]-5-oxo-pyrrolidin-1-yl}-butoxy)-acetic Acid Methyl Ester]
- EC50 (hEP1): 721 nM
- EC50 (hEP4 [1]): 61 nM

Structure (SMILES): COC(=O)COCCCCN1C(=O)CCC1CCC(=O)Cc1cccc(Cl)c1 (stereo in doubt) [Example 3, (4-{(R)-2-[4-(3-Chlorophenyl)-3-oxo-butyl]-5-oxo-pyrrolidin-1-yl}-butoxy)-acetic Acid Methyl Ester]
- EC50 (hTP): > 10000 nM
- EC50 (hEP4 [1]): > 10000 nM

Structure (SMILES): O=C(O)COCCCCN1C(=O)CCC1CCC(=O)Cc1cccc(Cl)c1 (stereo in doubt) [Example 4, (4-{(R)-2-[4-(3-Chlorophenyl)-3-oxo-butyl]-5-oxo-pyrrolidin-1-yl}-butoxy)-acetic Acid]
- IC50 (hEP4 [2]): 3100 nM
- EC50 (hTP): > 10000 nM
- EC50 (hEP4 [1]): 1720 nM

Structure (SMILES): COC(=O)COCCCCN1C(=O)CC[C@@H]1CC[C@H](O)Cc1cccc(Cl)c1 (stereo in doubt) [Example 5, (4-{(R)-2-[4-(3-Chlorophenyl)-3-hydroxy-butyl]-5-oxo-pyrrolidin-1-yl}-butoxy)-acetic Acid Methyl Ester]
- EC50 (hEP1): > 10000 nM
- EC50 (hEP4 [1]): 1780 nM

- EC50 (hEP3A): > 10000 nM
- EC50 (hTP): < 10000 nM
Structure (SMILES): O=C(O)COCCCCN1C(=O)CC[C@@H]1/C=C/C(=O)Cc1cccc(Cl)c1 [Example 2]

Structure (SMILES): O=C(O)COCCCCN1C(=O)CC[C@@H]1CC[C@H](O)Cc1cccc(Cl)c1 (stereo in doubt) [Example 6, (4-{(R)-2-[4-(3-Chlorophenyl)-3-hydroxy-butyl]-5-oxo-pyrrolidin-1-yl}-butoxy)-acetic Acid]
- IC50 (hEP4 [2]): 562 nM
- EC50 (hEP1): 3810 nM
- EC50 (hTP): > 10000 nM
- EC50 (hEP4 [1]): 192 nM

Structure (SMILES): COC(=O)COCCCCN1C(=O)CC[C@@H]1/C=C/[C@H](O)Cc1cccc(Cl)c1 [Example 7, (4-{(R)-2-[(E)-4-(3-Chlorophenyl)-3-hydroxy-but-1-enyl]-5-oxo-pyrrolidin-1-yl}-butoxy)-acetic Acid Methyl Ester]
- EC50 (hEP4 [1]): > 10000 nM

Structure (SMILES): O=C(O)COCCCCN1C(=O)CC[C@@H]1/C=C/[C@H](O)Cc1cccc(Cl)c1 [Example 8, (4-{(R)-2-[(E)-4-(3-Chlorolphenyl)-3-hydroxy-but-1-enyl]-5-oxo-pyrrolidin-1-yl}-butoxy)-acetic Acid]
- IC50 (hEP4 [2]): 30 nM
- maximum IOP decrease from baseline (normotensive dogs [3]): 4.9 mmHg
- maximum IOP decrease from baseline (percent) (normotensive dogs [3]): 26.6%
- EC50 (hTP): > 10000 nM
- EC50 (hEP4 [1]): 11 nM
- maximum ocular surface hyperemia score (normotensive dogs [4]): 1.5
